# According to patent US20250282895A1, “PHARMACEUTICAL COMPOSITIONS OF CHEMOTHERAPEUTIC AGENTS BASED ON BETA-S[…]-AMINO ACID DERIVATIVES” (priority 2021, published 2025):
# Structures can show the parent of a compound that is named as a salt.
# Key:
# [1] = Comparative stability, Formulation 2 (based on Alkeran); type: physicochemical; conditions: Formulation 2, 25° C.
# Protocol: The stability of Compound (1c) either as the HCl salt or as the free base was compared to the stability of melphalan HCl and/or bendamustine HCl in various pharmaceutical formulations and at different concentrations and at temperatures of 0° C. or 25° C.
# The stability of the compounds in the pharmaceutical formulations was determined at concentrations within the range from 0.4 mg/mL to 0.5 mg/mL, from 0.9 mg/mL to 1.1 mg/mL, and from 1.8 mg/mL to 2.1 mg/mL.
# The amount of the active pharmaceutical ingredient (API) (Compound (1c), melphalan or bendamustine) in the pharmaceutical formulations at different times during storage was determined using HPLC/UV as described in detail for Example 4 and Example 5.
# Alkeran® is an injectable formulation of melphalan-HCl approved by the FDA. Alkeran® for injection is supplied as a sterile, nonpyrogenic, freeze-dried powder. Each vial contains melphalan hydrochloride equivalent to 50 mg melphalan and 20 mg povidone (polyvinylpyrrolidinone, PVP). The solid powder is recons trued in a sterile diluent containing 0.2 g of sodium citrate, 6.0 mL of propylene glycol, and 0.52 mL of ethanol (96%) and Water for Injection for a total of 10 mL. This provides a nominal 5 mg/mL solution of melphalan (admixture). The dose to be administered is immediately diluted in 0.9% sodium chloride injection, USP, to a concentration not greater than 0.45 mg/mL. Alkeran® for injection is administered intravenously.
# A stock solution was prepared by dissolving 68.8 mg (0.206 mmol) of Compound (1c) (free base) and 25.0 mg of Plasdone® C-12 (Povidone; Ashland, 830796) in about 20.0 mL of a mixture of acetonitrile/water (1:1, v/v) with vortexing in clean graduated glass cylinder (25 mL). A solution of 0.407 mL of 0.5072 M aq. HCl (0.206 mmol, 1.0 eq.; Fluka, 318957) was added with gentle vortexing, and the resulting clear solution was further diluted to 25.0 mL with a mixture of acetonitrile/water (1:1, v/v) with gentle vortexing to afford a stock solution of Compound (1c) as a mono-HCl salt of a concentration 2.75 mg/mL and a Plasdone® concentration of 1.0 mg/mL. This solution was filtered through a 0.45 μm nylon syringe filter into a clean 50 mL Erlenmeyer flask. Aliquots of 2.0 mL (2× 1.0 mL; 2× 2.75 mg) of this stock solution were rapidly pipetted into clean 12 mL scintillation vials. The aliquots were frozen at −78° C. (dry ice/acetone bath) and lyophilized at about 100 mTorr for about 16 hours to provide test vials each containing 6.1 mg (0.0165 mmol) of Compound (1c) mono-hydrochloride salt (mono-HCl salt) (corresponding to 5.5 mg of Compound (1c), free base, as a colorless powdery solid.
# A stock solution was prepared by dissolving 62.5 mg (0.205 mmol) of melphalan (free base; SigmaAldrich, M2011) and 25.0 mg of Plasdone® C-12 (Povidone; Ashland, 830796) in about 20.0 mL of a mixture of acetonitrile/water (1:1, v/v) with vortexing in clean graduated glass cylinder (25 mL). A solution of 0.404 mL of 0.5072 M aq. HCl (0.205 mmol, 1.0 eq.; Fluka, 318957) was added with gentle vortexing, and the resulting clear solution was further diluted to 25.0 mL with a mixture of acetonitrile/water (1:1, v/v) with gentle vortexing to afford a stock solution of melphalan as a mono-HCl salt of a concentration 2.50 mg/mL and a Plasdone® concentration of 1.0 mg/mL. This solution was filtered through a 0.45 μm nylon syringe filter into a clean 50 mL Erlenmeyer flask. Aliquots of 2.0 mL (2× 1.0 mL; 2×2.50 mg) of this stock solution were rapidly pipetted into clean 12 mL scintillation vials. The aliquots were frozen at −78° C. (dry ice/acetone bath) and lyophilized at about 100 mTorr for about 16 hours to provide test vials each containing 5.6 mg (0.0164 mmol) of melphalan mono-hydrochloride salt (mono-HCl salt) (corresponding to 5.0 mg of melphalan as a free base) as a colorless powdery solid. […]
# [2] = Stability (impurities) of Compound (1c):SBE6.5-β-CD formulations at different pH values; type: physicochemical; conditions: listed as Compound (1c) HCl salt, mono hydrochloride salt
# Protocol: The stability of Compound (1c) in formulations containing a Compound (1c): SBE6.5-β-CD guest-host inclusion complex at different pH was determined by analytical HPLC/UV. The mass ratio of Compound (1c) to SBE6.5-β-CD was either 1:54 or 1:50.
# To prepare the formulations, SBE6.5-β-CD was dissolved in water for injection (WFI) by continuous stirring until a clear solution was obtained. The solution was acidified by addition of 1 N HCl. Compound (1c) was dissolved in the acidified aqueous SBE6.5-β-CD solution and water was added at Q.S. to the final volume to prepare a solution with a nominal concentration of 5.0 mg/mL of Compound (1c). The pH was adjusted with 1 N HCl to the values shown in Table 7 which corresponded to the pH of the final formulation after reconstitution with 0.9% saline. The solution was filtered through a 0.22 μm syringe filter followed by lyophilization to dryness affording a colorless powdery solid. The freeze-dried lyophilizate was reconstituted with 0.9% saline to the nominal target concentration of 5.0 mg/mL of Compound (1c). […]
# Analytical HPLC/UV was performed on a HPLC chromatograph equipped with a UV detector, a Waters Xbridge® C18 column (4.6× 150 mm; 5 μm) operated at 30° C. and a personal computer for data computation. Gradients of 0.01 M potassium dihydrogen phosphate solution (KH2PO4) solution adjusted to pH to 3.0 with phosphoric acid (H3PO4): acetonitrile=850:150 (v/v) (solvent A) and acetonitrile (MeCN; solvent B) were used in the analytical HPLC/UV analyses. The needle wash was performed with 50% aqueous acetonitrile. Prior to injection into the HPLC/UV system (10 μL injection volume), samples were diluted to a nominal concentration of 0.5 mg/mL of Compound (1c) with a 0.9 M sodium chloride (NaCl) and 0.1 N hydrochloric acid (HCl) diluent. The diluent solution was prepared from 5.26 g (90.0 mmol) of sodium chloride and 850 μL of concentrated hydrochloric acid (HCl) (36-38 wt-%, d 1.184, 1.00 g, 10.2 mmol) diluted to 100 mL solution.
# The HPLC/UV method used employed a gradient from 10 vol-% of solvent B to 100 vol-% of solvent B with a 36 min runtime at a flow rate of 1.5 mL/min and UV detection at 2=220 nm.
# [3] = pH 5.5-5.8, 0.5 hours, 0.4-0.5 mg/mL
# [4] = pH 5.5-5.8, 0.5 hours, 0.9-1.1 mg/mL
# [5] = pH 5.5-5.8, 0.5 hours, 1.8-2.1 mg/mL
# [6] = pH 5.5-5.8, 2.0 hours, 0.4-0.5 mg/mL
# [7] = pH 5.5-5.8, 2.0 hours, 0.9-1.1 mg/mL
# [8] = pH 5.5-5.8, 2.0 hours, 1.8-2.1 mg/mL
# [9] = Compound (1c):SBE6.5-β-CD 1:54, pH 4.1, 0 h, 5.0 mg/mL in 0.9% saline
# [10] = Compound (1c):SBE6.5-β-CD 1:54, pH 4.1, Cake
SMILES,"% API [1, 3]","% API [1, 4]","% API [1, 5]","% API [1, 6]","% API [1, 7]","% API [1, 8]","Impurity (% AUC) RRT 0.36 [2, 9]","Impurity (% AUC) RRT 1.31 [2, 9]","Impurity (% AUC) Total [2, 9]","Impurity (% AUC) RRT 0.36 [2, 10]","Impurity (% AUC) RRT 1.31 [2, 10]","Impurity (% AUC) Total [2, 10]"
"Cc1ccc(N(CCCl)CCCl)cc1C[C@H](N)CC(=O)O [Compound (1c)•HCl, (S)-3-amino-4-(5-(bis(2-chloroethyl)amino)-2-methylphenyl) butanoic acid mono hydrochloride salt]",91%,89%,89%,72%,60%,62%,1.51 % AUC,0.18 % AUC,2.2 % AUC,1.51 % AUC,0.18 % AUC,2.13 % AUC
"Cl.N[C@@H](Cc1ccc(N(CCCl)CCCl)cc1)C(=O)O [Melphalan•HCl, 4-[bis(2-chloroethyl)amino]-L-phenylalanine hydrochloride, reference compound]",95%,91%,91%,84%,71%,75%,,,,,,
